# Publication PMC3792051, “Polyenylpyrrole Derivatives Inhibit NLRP3 Inflammasome Activation and Inflammatory Mediator Expression by Reducing Reactive Oxygen Species Production and Mitogen-Activated Protein Kinase Activation” (PLoS ONE, 2013)
# Key:
# [1] = tested on: LPS-activated RAW 264.7 macrophages; assay: NO production inhibitory assay (Griess reaction); assay type: cell-based, murine
# Protocol: RAW 264.7 cells seeded in 24-well plates at a density of 5 × 10^5 cells/ml (1 ml) were incubated for 24 h with or without LPS (1 µg/ml) in the absence or presence of the test samples, then NO production was measured indirectly by analysis of nitrite levels using the Griess reaction.
# To investigate the inhibitory effect of compounds 1h, 1i, and 1n on the LPS-induced inflammatory response, NO levels in the supernatants of RAW 264.7 macrophages incubated with DMSO (vehicle) or compound 1h, 1i, or 1n for 30 min before, and during, incubation for 24 h with LPS (1 µg/ml) were measured by the Griess reaction. […] We next investigated their effect on the expression of iNOS, the NO producing enzyme, using Western blots.
# Figure 2 Effect of polyenylpyrrole derivatives on the expression of inflammatory mediators in LPS-stimulated RAW 264.7 macrophages. In (A) and (C), the cells (5 × 10^5/ml; 1 ml) were incubated for 30 min with 2.5-40 µM compound 1h, 1i, or 1n or DMSO (vehicle), then LPS (1 µg/ml) was added and incubation continued for 24 h, then NO (A) or IL-6 or TNF-α (C) in the culture medium was assayed by the Griess reaction or ELISA, respectively. In (B), cells (5 × 10^5/ml; 1 ml) were pretreated for 30 min with 2.5-40 µM compound 1h or DMSO, then LPS (1 µg/ml) was added and incubation continued for 24 h, then expression of iNOS and COX-2 was measured by Western blotting. The fold increase is the intensity of the band of interest divided by that of the actin band normalized to the corresponding value for the 0 LPS/0 inhibitor control.
# [2] = tested on: ATP-activated LPS-primed J774A.1 macrophages; assay: PKC-α and AKT phosphorylation by Western blot; assay type: cell-based, murine
# Protocol: In (C), LPS-primed J774A.1 macrophages (1 × 10^6/ml; 1 ml) were incubated for 30 min with 20 µM compound 1h or DMSO (vehicle) followed by ATP (5 mM) stimulation for 0-60 min, then phosphorylation of PKC-α was analyzed by Western blotting and expressed as the fold increase measured as the intensity of the PKC-α band divided by that of the actin band normalized to the corresponding value for DMSO at 0 minutes.
# [3] = tested on: LPS-activated J774A.1 cells; assay: NLRP3 and proIL-1β expression by Western blot; assay type: cell-based, mouse; details: J774A.1, 1-40 µM 30 min before LPS 6 h
# Protocol: Cells were washed twice with ice-cold phosphate-buffered saline (PBS) and lysed on ice for 5 min with lysis buffer (20 mM Tris-HCl, pH 7.5, 150 mM NaCl, 1 mM Na 2EDTA, 1 mM EGTA, 1% Triton X-100, 2.5 mM sodium pyrophosphate, 1 mM beta-glycerophosphate, 1 mM Na 3VO4, 1 µg/ml of leupeptin, 1 mM PMSF, protease inhibitor cocktail). The lysate was then centrifuged at 12,000 x g at 4 °C for 10 min and the pellet discarded. […]
# Figure 4 Effect of compound 1h on NLRP3 inflammasome activation in LPS+ATP-activated J774A.1 macrophages. (A) J774A.1 macrophages (1 × 10^6/ml; 1 ml) or (B) peritoneal macrophages (1 × 10^5/ml; 1 ml) were incubated with 10-40 µM compound 1h or DMSO for 30 min, then LPS (1 µg/ml) was added and incubation continued for 5.5 h, then the cells were stimulated with ATP (5 mM) for an additional 30 min, then IL-1β in the culture medium was measured by ELISA (A, upper panel; B) and levels of active caspase-1 (p10) (A, lower panel) measured by Western blotting. […] In (E), J774A.1 macrophages (1 × 10^6/ml; 1 ml) were incubated for 30 min with DMSO or 1-40 µM compound 1h, then LPS (1 µg/ml) was added and incubation continued for 6 h, then expression of NLRP3 and proIL-1β was measured by Western blotting. […]
compound,measurement,setting,value
O=c1cc(O)cc(/C=C/C=C/C=C/C=C/c2[nH]ccc2Cl)o1 [compound 1h],NO production by LPS-activated cells,"[1]; 2.5-40 µM, 30 min before and during LPS 1 µg/ml 24 h",decreased NO production by LPS-activated cells in a dose-dependent manner
same,ED50 (inhibition of LPS-induced NO production),"[1]; RAW 264.7 macrophages, LPS 1 µg/ml, 24 h, Griess reaction",15 ± 2 µM
same,NO levels produced by non-activated cells,"[1]; compound alone, no LPS (data not shown)",did not alter NO levels produced by non-activated cells
same,ATP-induced PKC-α phosphorylation,"[2]; LPS-primed J774A.1, 20 µM 30 min, ATP 5 mM 0-60 min",significant inhibition of ATP-induced PKC-α phosphorylation at 20-60 min
same,ATP-induced AKT phosphorylation,[2]; LPS-primed macrophages (data not shown),did not reduce ATP-induced AKT phosphorylation
same,LPS-induced proIL-1β expression,[3],inhibited LPS-induced proIL-1β expression in a dose-dependent fashion
same,NLRP3 protein expression,[3],increased NLRP3 expression
